Experiment [1] concerns KARN cells (Jurkat 2C4). Description: cells. The note with it: Homo sapiens.
Experiment [2] deals with human HDAC3/SMRT heterodimer (Homo sapiens (Human), UniProt O15379).
Experiment [3] has as its target HDAC6 (Homo sapiens (Human), UniProt Q9UBN7).
Method: The histone deacetylase activities of HDAC1, HDAC2, HDAC3, HDAC6, and HDAC8 were measured in modified FLUOR DE LYS assays in 384-well format. In this assay, HDAC enzymes are initially incubated with an F-acetyl (or -trifluoroacetyl)-L-lysine-containing substrate with a C-terminal amide having aminomethylcoumarin as the amine component. HDACs cleave the F-acetyl group, rendering the resulting product susceptible to AMC cleavage by trypsin. The released AMC is then detected by its fluorescence. […] All steps were performed at room temperature (23° C.). The assay was performed by pre-incubating serial dilutions of test compounds with the target HDAC prior to initiation with substrate. […] Final conditions used for each assay were: 1. […] The reactions were stopped and developed by addition of 30 ul of HDAC developer solution containing a saturating level of HDAC inhibitor as follows: 1. […] For data analysis, background subtracted product (fluorescence) vs. time data for each inhibitor concentration was fitted using a 4-parameter fit.
Experiment [4] concerns the target human HDAC2 (Homo sapiens (Human), UniProt Q92769). The experiment in a line: HDAC2 inhibition assay (modified FLUOR DE LYS, 384-well). It counts as biochemical. Conditions: […] enzyme, 40 μM substrate BML-KI104, 3 h pre-incubation; read-out: HDAC2 IC50.
Experiment [5] concerns the target human HDAC1 (Homo sapiens (Human), UniProt Q13547).
Experiment [6] addresses human HDAC8 (Homo sapiens (Human), UniProt Q9BY41). The experiment in a line: HDAC8 inhibition assay (modified FLUOR DE LYS, 384-well). Conditions: […] enzyme, 200 μM substrate BML-KI178, 3 h pre-incubation; read-out: HDAC8 IC50. It counts as biochemical.
The mark [7] stands for this setting: read-out: Karn EC50 nM 0.1% NHS, 0.1% normal human serum, luciferase induction, 2 μM SAHA = 100%.
Setting [8] is: read-out: Karn EC50 nM 5% NHS, 5% normal human serum, luciferase induction, 2 μM SAHA = 100%.

SMILES strings stand for the structures. Where two headings read alike, the source gives them in different places.

Chain of human HDAC3/SMRT heterodimer (O15379 whole entry): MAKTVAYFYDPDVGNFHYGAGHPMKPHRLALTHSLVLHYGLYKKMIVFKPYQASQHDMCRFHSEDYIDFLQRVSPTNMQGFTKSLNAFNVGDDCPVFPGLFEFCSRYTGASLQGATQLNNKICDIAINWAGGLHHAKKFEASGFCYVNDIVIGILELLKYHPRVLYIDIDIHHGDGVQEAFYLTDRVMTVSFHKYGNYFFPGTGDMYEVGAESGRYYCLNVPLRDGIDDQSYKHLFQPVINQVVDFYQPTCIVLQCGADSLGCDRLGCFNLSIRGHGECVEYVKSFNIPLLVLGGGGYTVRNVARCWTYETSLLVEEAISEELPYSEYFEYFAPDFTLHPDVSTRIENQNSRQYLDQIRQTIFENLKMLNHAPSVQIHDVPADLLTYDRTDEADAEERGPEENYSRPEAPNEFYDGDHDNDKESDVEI
Chain of human HDAC3/SMRT heterodimer (Q9Y618 1-899 partner): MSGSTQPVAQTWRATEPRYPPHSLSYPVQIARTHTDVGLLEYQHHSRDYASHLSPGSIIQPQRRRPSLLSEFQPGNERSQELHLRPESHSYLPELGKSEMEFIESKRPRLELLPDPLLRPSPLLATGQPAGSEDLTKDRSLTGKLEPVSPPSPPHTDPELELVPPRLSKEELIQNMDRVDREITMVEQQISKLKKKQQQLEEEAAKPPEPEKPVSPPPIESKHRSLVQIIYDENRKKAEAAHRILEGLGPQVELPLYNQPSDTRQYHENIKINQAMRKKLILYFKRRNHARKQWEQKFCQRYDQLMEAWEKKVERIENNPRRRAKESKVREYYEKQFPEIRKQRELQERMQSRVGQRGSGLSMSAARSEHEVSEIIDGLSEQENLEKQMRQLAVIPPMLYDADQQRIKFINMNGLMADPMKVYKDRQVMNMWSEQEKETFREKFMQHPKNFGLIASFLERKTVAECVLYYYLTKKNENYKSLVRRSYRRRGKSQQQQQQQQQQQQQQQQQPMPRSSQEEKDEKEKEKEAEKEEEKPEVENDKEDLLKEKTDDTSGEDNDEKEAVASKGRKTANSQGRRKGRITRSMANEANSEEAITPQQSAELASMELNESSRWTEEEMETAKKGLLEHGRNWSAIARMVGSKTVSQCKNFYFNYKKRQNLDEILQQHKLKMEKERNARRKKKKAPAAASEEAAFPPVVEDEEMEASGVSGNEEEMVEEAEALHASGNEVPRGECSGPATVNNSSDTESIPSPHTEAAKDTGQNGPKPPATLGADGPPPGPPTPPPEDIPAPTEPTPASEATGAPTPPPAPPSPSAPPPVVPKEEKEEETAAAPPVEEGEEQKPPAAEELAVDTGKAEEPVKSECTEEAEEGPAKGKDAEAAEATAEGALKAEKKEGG
Chain of human HDAC1 (Q13547 whole entry): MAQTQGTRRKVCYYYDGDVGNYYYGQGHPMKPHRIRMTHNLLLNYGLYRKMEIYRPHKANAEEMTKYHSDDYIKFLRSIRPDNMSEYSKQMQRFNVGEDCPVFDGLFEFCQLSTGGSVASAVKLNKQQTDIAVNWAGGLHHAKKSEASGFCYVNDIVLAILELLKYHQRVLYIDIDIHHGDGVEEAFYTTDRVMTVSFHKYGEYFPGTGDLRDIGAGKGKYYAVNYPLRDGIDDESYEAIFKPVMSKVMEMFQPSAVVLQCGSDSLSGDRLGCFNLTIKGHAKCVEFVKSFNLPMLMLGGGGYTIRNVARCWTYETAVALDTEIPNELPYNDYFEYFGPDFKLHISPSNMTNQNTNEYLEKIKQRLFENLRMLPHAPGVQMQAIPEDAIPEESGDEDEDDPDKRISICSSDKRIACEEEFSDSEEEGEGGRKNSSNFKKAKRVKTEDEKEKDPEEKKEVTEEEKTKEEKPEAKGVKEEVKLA
Chain of human HDAC8 (Q9BY41 whole entry): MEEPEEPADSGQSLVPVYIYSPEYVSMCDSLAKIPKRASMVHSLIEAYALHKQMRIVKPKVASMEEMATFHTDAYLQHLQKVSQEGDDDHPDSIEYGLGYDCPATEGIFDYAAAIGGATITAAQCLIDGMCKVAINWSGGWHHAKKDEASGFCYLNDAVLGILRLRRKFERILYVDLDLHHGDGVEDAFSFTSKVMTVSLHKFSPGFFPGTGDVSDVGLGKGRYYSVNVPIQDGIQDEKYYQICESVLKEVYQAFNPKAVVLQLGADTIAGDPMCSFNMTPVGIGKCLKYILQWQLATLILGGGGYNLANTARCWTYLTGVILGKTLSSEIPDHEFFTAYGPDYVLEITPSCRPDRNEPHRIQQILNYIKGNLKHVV
Chain of human HDAC2 (Q92769 whole entry): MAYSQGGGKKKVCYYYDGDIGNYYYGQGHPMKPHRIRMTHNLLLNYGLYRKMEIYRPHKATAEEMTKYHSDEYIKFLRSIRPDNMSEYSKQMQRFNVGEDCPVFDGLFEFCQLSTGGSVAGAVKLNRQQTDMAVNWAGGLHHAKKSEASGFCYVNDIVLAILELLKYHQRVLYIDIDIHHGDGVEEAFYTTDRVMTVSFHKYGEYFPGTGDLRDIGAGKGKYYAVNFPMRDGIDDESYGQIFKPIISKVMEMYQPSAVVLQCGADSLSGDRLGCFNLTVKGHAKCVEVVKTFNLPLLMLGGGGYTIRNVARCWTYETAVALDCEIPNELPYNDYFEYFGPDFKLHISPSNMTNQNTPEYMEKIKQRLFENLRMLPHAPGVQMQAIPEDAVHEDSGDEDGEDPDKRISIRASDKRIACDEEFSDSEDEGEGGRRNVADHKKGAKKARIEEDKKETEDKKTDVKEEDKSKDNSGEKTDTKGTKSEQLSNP
Chain of HDAC6 (Q9UBN7 whole entry): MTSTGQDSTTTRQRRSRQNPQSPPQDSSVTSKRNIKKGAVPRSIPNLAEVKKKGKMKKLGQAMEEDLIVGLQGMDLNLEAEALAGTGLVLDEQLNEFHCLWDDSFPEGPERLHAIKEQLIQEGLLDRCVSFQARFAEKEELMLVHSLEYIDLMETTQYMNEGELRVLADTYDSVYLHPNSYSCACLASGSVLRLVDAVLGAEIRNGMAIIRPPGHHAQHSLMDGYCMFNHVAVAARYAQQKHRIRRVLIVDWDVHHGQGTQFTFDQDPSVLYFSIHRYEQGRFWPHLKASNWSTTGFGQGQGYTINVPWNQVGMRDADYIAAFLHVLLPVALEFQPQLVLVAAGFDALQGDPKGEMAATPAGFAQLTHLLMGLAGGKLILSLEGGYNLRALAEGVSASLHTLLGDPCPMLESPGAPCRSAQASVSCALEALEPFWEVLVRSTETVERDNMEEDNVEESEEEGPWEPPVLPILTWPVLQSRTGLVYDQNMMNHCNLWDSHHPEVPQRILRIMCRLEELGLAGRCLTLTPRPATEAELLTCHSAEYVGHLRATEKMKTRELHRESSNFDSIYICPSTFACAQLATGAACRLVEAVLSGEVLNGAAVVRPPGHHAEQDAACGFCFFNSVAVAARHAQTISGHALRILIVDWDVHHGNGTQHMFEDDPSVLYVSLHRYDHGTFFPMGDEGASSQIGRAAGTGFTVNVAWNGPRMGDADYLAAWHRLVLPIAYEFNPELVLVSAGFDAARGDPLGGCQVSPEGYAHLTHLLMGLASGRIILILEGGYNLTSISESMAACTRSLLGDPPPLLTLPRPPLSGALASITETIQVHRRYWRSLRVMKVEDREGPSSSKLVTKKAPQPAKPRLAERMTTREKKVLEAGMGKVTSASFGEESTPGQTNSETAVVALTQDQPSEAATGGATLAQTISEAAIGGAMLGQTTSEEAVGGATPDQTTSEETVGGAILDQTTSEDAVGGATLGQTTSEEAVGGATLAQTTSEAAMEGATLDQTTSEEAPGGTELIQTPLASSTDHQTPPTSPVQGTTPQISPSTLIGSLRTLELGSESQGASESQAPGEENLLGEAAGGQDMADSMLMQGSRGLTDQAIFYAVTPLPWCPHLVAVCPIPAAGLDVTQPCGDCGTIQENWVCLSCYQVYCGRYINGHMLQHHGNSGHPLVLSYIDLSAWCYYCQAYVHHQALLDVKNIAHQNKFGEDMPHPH

As a reminder, the EC50 is the concentration giving half of the maximal effect. A word on the IC50: it is the concentration that gives 50% inhibition. On to `COc1cc2nc(C)ccc2cc1-c1cnc([C@H](CCCCCC(=O)c2ncco2)NC(=O)c2cc3n(n2)CCS(=O)(=O)C3)[nH]1` [Example 165, N-[(1S)-1-[5-(7-methoxy-2-methylquinolin-6-yl)-1H-imidazol-2-yl]-7-(1,3-oxazol-2-yl)-7-oxoheptyl]-6,7-dihydro-4H-pyrazolo[5,1-c][1,4]thiazine-2-carboxamide 5,5-dioxide], for which the EC50 was 370 nM in experiment [1] (setting [7]) and 760 nM in experiment [1] (setting [8]). Moreover, the IC50 was 0.46 nM in experiment [2]; over 900 nM in experiment [3]; 7.2 nM in experiment [4]; 2.3 nM in experiment [5]; 41 nM in experiment [6].

Take `COc1cc2nc(C)ccc2cc1-c1cnc([C@H](CCCCCC(=O)c2ncco2)NC(=O)Cn2ccc(C)n2)[nH]1` [Example 166, N-[(1S)-1-[5-(7-methoxy-2-methylquinolin-6-yl)-1H-imidazol-2-yl]-7-(1,3-oxazol-2-yl)-7-oxoheptyl]-2-(3-methyl-1H-pyrazol-1-yl)acetamide]: the half-maximal effective concentration (EC50) in experiment [1] (setting [7]) turned out to be 77 nM; in experiment [1] (setting [8]), 200 nM. The 50% inhibitory concentration (IC50) in experiment [2] amounted to 0.56 nM; in experiment [3] it was 660 nM; in experiment [4] it was 6.2 nM; in experiment [5], 1.7 nM; in experiment [6], 75 nM.

With `COc1cc2nc(C)ccc2cc1-c1cnc([C@H](CCCCCC(=O)c2ncco2)NC(=O)c2cc3ccccn3n2)[nH]1` [Example 167, N-[(1S)-1-[5-(7-methoxy-2-methylquinolin-6-yl)-1H-imidazol-2-yl]-7-(1,3-oxazol-2-yl)-7-oxoheptyl]pyrazolo[1,5-a]pyridine-2-carboxamide], the values for the EC50 in experiment [1] (setting [7]) and in experiment [1] (setting [8]) were 83 nM and 400 nM, respectively. Also, the IC50 is 0.59 nM in experiment [2]; over 900 nM in experiment [3]; 13 nM in experiment [4]; 2.2 nM in experiment [5]; 63 nM in experiment [6].

As to `COc1cc2nc(C)ccc2cc1-c1cnc([C@H](CCCCCC(=O)c2ncco2)NC(=O)C2CCCCO2)[nH]1` (stereo partly drawn) [Example 168, N-[(1S)-1-[5-(7-methoxy-2-methylquinolin-6-yl)-1H-imidazol-2-yl]-7-(1,3-oxazol-2-yl)-7-oxoheptyl]tetrahydro-2H-pyran-2-carboxamide], the EC50 in experiment [1] (setting [7]) was found to be 100 nM; in experiment [1] (setting [8]), 200 nM. The IC50 is 1.2 nM in experiment [2]; over 900 nM in experiment [3]; 12 nM in experiment [4]; 3 nM in experiment [5]; 120 nM in experiment [6].

`COc1cc2nc(C)ccc2cc1-c1cnc([C@H](CCCCCC(=O)c2ncco2)NC(=O)C2CCCO2)[nH]1` (stereo partly drawn) [Example 169, N-[(1S)-1-[5-(7-methoxy-2-methylquinolin-6-yl)-1H-imidazol-2-yl]-7-(1,3-oxazol-2-yl)-7-oxoheptyl]tetrahydrofuran-2-carboxamide]: the values for the concentration giving a half-maximal response (EC50) in experiment [1] (setting [7]) and in experiment [1] (setting [8]) were 99 nM and 270 nM, respectively. Also, the half-inhibitory concentration (IC50) was 1.2 nM in experiment [2]; over 900 nM in experiment [3]; 15 nM in experiment [4]; 3.4 nM in experiment [5]; 180 nM in experiment [6].

For the molecule `COc1cc2nc(C)ccc2cc1-c1cnc([C@H](CCCCCC(=O)c2ncco2)NC(=O)C2(C)CCCCO2)[nH]1` (stereo partly drawn) [Example 170, N-[(1S)-1-[5-(7-methoxy-2-methylquinolin-6-yl)-1H-imidazol-2-yl]-7-(1,3-oxazol-2-yl)-7-oxoheptyl]-2-methyltetrahydro-2H-pyran-2-carboxamide], the EC50 was determined as 160 nM in experiment [1] (setting [7]) and 260 nM in experiment [1] (setting [8]). For the same molecule, the half-inhibitory concentration (IC50) in experiment [2] was 1.6 nM; in experiment [3] it was over 900 nM; in experiment [4], 17 nM; in experiment [5], 4.1 nM; in experiment [6] it was 220 nM.

As for `COc1cc2nc(C)ccc2cc1-c1cnc([C@H](CCCCCC(=O)c2ncco2)NC(=O)C2COc3ccccc3O2)[nH]1` (stereo partly drawn) [Example 171, N-[(1S)-1-[5-(7-methoxy-2-methylquinolin-6-yl)-1H-imidazol-2-yl]-7-(1,3-oxazol-2-yl)-7-oxoheptyl]-2,3-dihydro-1,4-benzodioxine-2-carboxamide], the concentration giving a half-maximal response (EC50) in experiment [1] (setting [7]) stood at 180 nM; in experiment [1] (setting [8]), 470 nM. Moreover, the IC50 in experiment [2] was 4 nM; in experiment [3], over 900 nM; in experiment [4] it was 56 nM; in experiment [5], 11 nM; in experiment [6] it was 340 nM.

For `COc1cc2nc(C)ccc2cc1-c1cnc([C@H](CCCCCC(=O)c2ncco2)NC(=O)C2COC(c3ccccc3)CO2)[nH]1` (stereo partly drawn) [Example 172, N-[(1S)-1-[5-(7-methoxy-2-methylquinolin-6-yl)-1H-imidazol-2-yl]-7-(1,3-oxazol-2-yl)-7-oxoheptyl]-5-phenyl-1,4-dioxane-2-carboxamide], the EC50 in experiment [1] (setting [7]) is 340 nM; in experiment [1] (setting [8]), 990 nM. For the same molecule, the IC50 in experiment [2] was 6.4 nM; in experiment [3] it was over 900 nM; in experiment [4] it was 100 nM; in experiment [5], 20 nM; in experiment [6] it was 490 nM.

Turning to `COc1cc2nc(C)ccc2cc1-c1cnc([C@H](CCCCCC(=O)c2ncco2)NC(=O)C2COCCO2)[nH]1` (stereo partly drawn) [Example 173, N-[(1S)-1-[5-(7-methoxy-2-methylquinolin-6-yl)-1H-imidazol-2-yl]-7-(1,3-oxazol-2-yl)-7-oxoheptyl]-1,4-dioxane-2-carboxamide], the EC50 worked out at 42 nM in experiment [1] (setting [7]) and 74 nM in experiment [1] (setting [8]). Moreover, the IC50 in experiment [2] was 0.43 nM; in experiment [3] it was over 900 nM; in experiment [4], 3.2 nM; in experiment [5], 1.1 nM; in experiment [6] it was 83 nM.

Consider `COc1cc(-c2cnc([C@H](CCCCCC(=O)c3ncco3)NC(=O)C3CN(C)C3)[nH]2)c(F)cn1` [Example 178, N-[(1S)-1-[5-(5-fluoro-2-methoxypyridin-4-yl)-1H-imidazol-2-yl]-7-(1,3-oxazol-2-yl)-7-oxoheptyl]-1-methylazetidine-3-carboxamide], for which the EC50 came out at 80 nM in experiment [1] (setting [7]) and 1000 nM in experiment [1] (setting [8]). The IC50 in experiment [2] was found to be 1.5 nM; in experiment [3], 5300 nM; in experiment [4], 7.8 nM; in experiment [5], 2 nM; in experiment [6], 83 nM.

Consider `CCN1CCC2(CC1)C[C@@H]2C(=O)N[C@@H](CCCCCC(=O)c1ncco1)c1ncc(-c2cc(OC)ncc2F)[nH]1` [Example 179, (1S)-6-ethyl-N-[(1S)-1-[5-(5-fluoro-2-methoxypyridin-4-yl)-1H-imidazol-2-yl]-7-(1,3-oxazol-2-yl)-7-oxoheptyl]-6-azaspiro[2.5]octane-1-carboxamide], for which the EC50 amounted to 36 nM in experiment [1] (setting [7]) and 48 nM in experiment [1] (setting [8]). For the same molecule, the half-inhibitory concentration (IC50) is 1.5 nM in experiment [2]; 4300 nM in experiment [3]; 7.1 nM in experiment [4]; 2.3 nM in experiment [5]; 65 nM in experiment [6].

`CCN1CCC2(CC1)C[C@@H]2C(=O)N[C@@H](CCCCCC(=O)c1ncco1)c1ccn(-c2ccc3nn(C)cc3c2)n1` [Example 180, (1S)-6-ethyl-N-[(1S)-1-[1-(2-methyl-2H-indazol-5-yl)-1H-pyrazol-3-yl]-7-(1,3-oxazol-2-yl)-7-oxoheptyl]-6-azaspiro[2.5]octane-1-carboxamide]: the figures for the half-maximal effective concentration (EC50) in experiment [1] (setting [7]) and in experiment [1] (setting [8]) were 200 nM and 190 nM, respectively. For the same molecule, the IC50 in experiment [2] was 1.5 nM; in experiment [3], over 900 nM; in experiment [4], 5.2 nM; in experiment [5], 0.9 nM; in experiment [6], 170 nM.

On to `CN1CC(C(=O)N[C@@H](CCCCCC(=O)c2ncco2)c2ncc(-c3cc(OC4CCC4)ccc3F)[nH]2)C1` [Example 181, N-[(1S)-1-{5-[5-(cyclobutyloxy)-2-fluorophenyl]-1H-imidazol-2-yl}-7-(1,3-oxazol-2-yl)-7-oxoheptyl]-1-methylazetidine-3-carboxamide], for which the EC50 in experiment [1] (setting [7]) turned out to be 84 nM; in experiment [1] (setting [8]), 630 nM. Further, the IC50 was 1 nM in experiment [2]; over 900 nM in experiment [3]; 13 nM in experiment [4]; 2.6 nM in experiment [5]; 12 nM in experiment [6].

As for `CCN1CCC2(CC1)C[C@@H]2C(=O)N[C@@H](CCCCCC(=O)c1ncco1)c1ncc(-c2cc(OC3CCC3)ccc2F)[nH]1` [Example 182, (1S)-N-[(1S)-1-{5-[5-(cyclobutyloxy)-2-fluorophenyl]-1H-imidazol-2-yl}-7-(1,3-oxazol-2-yl)-7-oxoheptyl]-6-ethyl-6-azaspiro[2.5]octane-1-carboxamide], the EC50 was 41 nM in experiment [1] (setting [7]) and 190 nM in experiment [1] (setting [8]). For the same molecule, the half-maximal inhibitory concentration (IC50) in experiment [2] was 0.79 nM; in experiment [3], over 900 nM; in experiment [4], 9.1 nM; in experiment [5], 2 nM; in experiment [6], 5.6 nM.

Take `CCN1CCC2(CC1)C[C@@H]2C(=O)N[C@@](C)(CCCCCC(=O)c1ccon1)c1ncc(-c2ccccc2F)[nH]1` [Example 183, (S)-6-ethyl-N-((S)-2-(5-(2-fluorophenyl)-1H-imidazol-2-yl)-8-(isoxazol-3-yl)-8-oxooctan-2-yl)-6-azaspiro[2.5]octane-1-carboxamide]: the EC50 in experiment [1] (setting [7]) and in experiment [1] (setting [8]) was 37 nM in each case. Further, the half-maximal inhibitory concentration (IC50) came to 0.48 nM in experiment [2]; 43000 nM in experiment [3]; 2.3 nM in experiment [4]; 0.56 nM in experiment [5]; 550 nM in experiment [6].

(Values after patent US12331044B2, “Inhibitors of histone deacetylase useful for the treatment or prevention of HIV infection” (Merck Sharp & Dohme LLC, priority 2018, dated 2025).)
